The values that follow come from PubChem BioAssay (NCI).

What all share (experiment): NCI anticancer screen, dose series, 48 h
For experiment [1], the system named is LOX IMVI melanoma.
Experiment [2] deals with HCT-15 colon.
Experiment [3] has as its system HS 578T breast.
For experiment [4], the system named is HCT-116 colon.
Experiment [5] has as its system SF-295 CNS.
Experiment [6] has as its system TK-10 renal.
Experiment [7] deals with KM12 colon.
In experiment [8] the test system is NCI/ADR-RES ovarian.
Experiment [9] relates to SK-MEL-2 melanoma.
Experiment [10] concerns UACC-62 melanoma.

“And” between values parts separate entries of the source, which are not always exact repeats. Identical values can stand only once.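 Dose response: 5 concentrations. Exposure: 48 h. Format: 96-well plates. Endpoint: linear interpolation; highest concentration if not reached. At the GI50, growth is halved. At the TGI there is no net growth.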 Where a SMILES comes first, the peptide text is derived from it. The star is where a group is joined. Boc = CC(C)(C)OC(=O)*

As to `CC(C)(C)OC(=O)NC(Cc1ccc(O)cn1)C(N)=O` (configuration not stated), the TGI in experiment [1], in experiment [2], in experiment [3], in [4], in experiment [5] and in experiment [6] was greater than 100 µM throughout. Further, the TGI in experiment [7] and in [8] was greater than 100 µM each time.
`CC(=O)NC1C(OCc2ccccc2)OC(CO)C(O)C1OCC(=O)NC(C)C(=O)NC(CCC(=O)NCCCCCNc1c2ccccc2nc2cccc([N+](=O)[O-])c12)C(N)=O` (configuration not stated): the TGI in [9] is less than 0.0001 µM; in [1] it was 0.0147 µM and 0.014 µM; in experiment [2], less than 0.0001 µM; in experiment [4], less than 0.0001 µM; in [5] it was 0.0265 µM; in experiment [6] it was 1.54 µM. The molecule further came in with a TGI in [7] of less than 0.0001 µM. The GI50 in [6] was less than 0.0001 µM.
Turning to `COc1cccc2c1C1(O)C2CCCC12OCCCO2` (configuration not stated), the TGI in experiment [9], in experiment [1], in [10], in experiment [2], in [4] and in experiment [5] was greater than 100 µM each time. Also, the TGI in experiment [6] and in experiment [7] was greater than 100 µM each time.
In the case of `Cc1ccc(S(=O)(=O)NC(=O)NCCC(=O)O)cc1`, the TGI in experiment [9], in experiment [1], in experiment [10], in experiment [2], in experiment [3] and in [4] was greater than 100 µM each time. The TGI in [5], in experiment [6] and in [7] was greater than 100 µM each time.
Take `CN(C)CCOC(=O)c1ccc(N)cc1`: the TGI in experiment [1], in experiment [10], in [2], in experiment [3], in experiment [4] and in experiment [5] was greater than 100 µM in each case. For the same molecule, the TGI in experiment [6], in [7] and in experiment [8] was greater than 100 µM in each case.
As for `COc1ccccc1NC(=S)N/N=C(/C)c1ccccn1`, the TGI in experiment [9] is greater than 88.7 µM; in experiment [1] it was 67.2 µM; in experiment [2], greater than 100 µM; in experiment [3] it was greater than 100 µM; in [4], 13.8 µM; in [5], greater than 100 µM. Also, the TGI was 58.9 µM in experiment [6] and greater than 100 µM in experiment [7].
Turning to `COC(=O)c1nc(-c2ccc3c(n2)C(=O)C(N)=C(OC)C3=O)c(N)c(-c2ccc(OC)c(OC)c2O)c1C`, the TGI in [9] came out at 3.26 µM; in experiment [10] it was 1.27 µM; in experiment [2], 2.68 µM; in experiment [4], 2.14 µM; in experiment [5], 2.02 µM; in experiment [7] it was 6.13 µM. The same molecule showed a TGI in [8] of 3.09 µM.
With `COC(=O)C(Cc1c[nH]c2ccccc12)NC(=O)C(Cc1c[nH]c2ccccc12)NC(=O)C(Cc1c[nH]c2ccccc12)NC(=O)C(Cc1c[nH]c2ccccc12)NC(=O)OC(C)(C)C` (configuration not stated) (Boc-WWWW-OMe; configuration not given here), the TGI in experiment [1] is 28 µM; in [10], 38.4 µM; in [2], greater than 100 µM; in [4], 44.2 µM; in experiment [6] it was greater than 100 µM.
With `O=C1OC2(C(F)(F)F)Oc3ccccc3CN2C12CCCCC2` (configuration not stated), the TGI is 52.7 µM in [1]; greater than 100 µM in [10]; 84.1 µM in experiment [2]; 82.8 µM in experiment [4]; 86.8 µM in [5]; greater than 100 µM in [6]. For the same molecule, the TGI in experiment [7] is 90.8 µM; in [8], greater than 100 µM.
Consider `CO/C(=N\N=C\c1ccc(Cl)cc1Cl)c1ccncc1`, for which the TGI in experiment [9], in [1], in experiment [2], in experiment [4], in experiment [5] and in experiment [6] was greater than 10 µM in each case. Besides, the TGI in experiment [7] and in [8] was greater than 10 µM throughout.
On to `CC(=NCCN(CCN=C(C)c1c(O)cc(C)oc1=O)CCN=C(C)c1c(O)cc(C)oc1=O)c1c(O)cc(C)oc1=O`, for which the TGI in experiment [2], in experiment [3], in [4], in experiment [5], in [6] and in experiment [7] was greater than 100 µM each time. The same molecule showed a TGI in experiment [8] greater than 100 µM.
With `CC1CCc2c(sc3ncnc(N/N=C/c4ccc(Cl)c(Cl)c4)c23)C1` (configuration not stated), the TGI was greater than 100 µM in [9]; 54.6 µM in experiment [1]; 64.5 µM in [10]; greater than 100 µM in experiment [2]; greater than 100 µM in [4]; 43.2 µM in experiment [5]. Besides, in experiment [6], the TGI was greater than 100 µM.
Regarding `CCOC(=O)c1c2c(n3ccc(NC(=O)OC(C)(C)C)cc13)C(=O)c1ncccc1C2=O`, the GI50 was 0.44 µM in [9]; 0.138 µM in experiment [10]; 0.0195 µM in experiment [2]; 1.21 µM in [3]; 0.272 µM in experiment [5]; 0.132 µM in experiment [6]. Further, the TGI in experiment [9] turned out to be 9.24 µM; in [10], 0.639 µM; in experiment [2], 1.49 µM; in [3], 4.65 µM; in experiment [5], 1.13 µM; in experiment [6], 3.39 µM.
With `CC(=O)NC1=C(C)C(=O)c2c(nc3n2CCC3O)C1=O` (configuration not stated), the TGI in [9] was 42.8 µM; in [1] it was greater than 100 µM; in experiment [10], 38.2 µM; in experiment [2] it was greater than 100 µM; in experiment [4] it was 67.7 µM; in [5], greater than 100 µM. Further, the TGI in experiment [6] and in experiment [7] was greater than 100 µM each time.
For `N=S(=O)(c1ccccc1)c1ccccc1[N+](=O)[O-]` (configuration not stated), the TGI in experiment [9], in experiment [10], in experiment [2], in experiment [4], in experiment [5] and in experiment [6] was greater than 100 µM throughout. In [7], this molecule had a TGI greater than 100 µM.
As for `CCNC(=O)/C=C/CCC#Cc1ccc(-c2ccc(-c3cccs3)s2)s1`, the TGI in experiment [9], in experiment [1], in experiment [10], in [2], in experiment [4] and in experiment [5] was greater than 100 µM in each case. Moreover, the TGI in experiment [6] and in experiment [7] was greater than 100 µM throughout.
